Measurements from patent US20230044449A1, “NICLOSAMIDE FORMULATIONS AND METHODS OF USE AS CONTRACEPTIVE” (YourChoice Therapeutics, Inc., priority 2020, published 2023).
Read-outs that look alike come from different tables or passages of the source.

What was measured:
[1] = cited from earlier work
[2] = anhydrous form; cited from earlier work
human sperm = assay: Sperm motility of fresh human semen mixed with different concentrations of niclosamide (FIG. 1); type: cell-based
Method: FIG. 1 is a graph depicting the dose dependent effect of niclosamide dissolved in DMSO, on sperm motility. Fresh human semen samples were mixed with the different concentrations of niclosamide in vitro, followed by analysis of sperm motility within 2 minutes. The x-axis depicts the different concentrations of niclosamide mixed with the semen sample. The x-axis, from Left to Right: the gray bar depicts an untreated semen sample, the blue bar depicts a vehicle control, and the eight pink bars depict the increasing concentrations of niclosamide tested. […]
Sperm motility is a functional measurement of the sperm themselves. Sperm may be sampled either directly from semen or from washed sperm samples, and assessed for motility either manually or by CASA (Computer Assisted Sperm Analysis) (Chapter 59—Male Reproductive System. Systems Toxicologic Pathology. Dianne M. Creasy, Robert E. Chapin, in Haschek and Rousseaux's Handbook of Toxicologic Pathology (Third Edition), 2013; Amann R P et al. Computer-assisted sperm analysis (CASA): capabilities and potential developments. Theriogenology. 2014 Jan. 1; 81(1):5-17). Sperm motility (expressed as %) may be evaluated in duplicate within 1 h of semen collection, by counting moving and nonmoving sperm in several microscopic fields. […] Slow-moving sperm (class B+C) can be easily and accurately counted compared with rapidly moving (class A) sperm. […]

[3] = Solubility in solvents/co-solvents; type: physicochemical
Method: Solubility of the drug was determined in selected solvent/co-solvents. About 10 g of the solvent was taken and small amount of drug was added in increments till 500 mg. […] These solutions were further diluted quantitatively to about test concentration and analyzed using chromatograph.

[4] = Saturation solubility in buffers (shake flask); type: physicochemical; conditions: 37° C., 24 hours
Method: Solubility was established using 100 mL of each of the chosen buffers, and was conducted using shake flask method. […] Further, the solution was agitated at 37° C. for 24 hours and checked physically for un-dissolved mass. This saturated solution was centrifuged and injected an aliquot in to the chromatograph.

[5] = Saturation solubility in various solvents (PEG grades); type: physicochemical
From the text: Saturation solubility of niclosamide was studied in the solvents, to know the highest concentration of niclosamide that can be solubilized, as depicted in table 6. [table]

fresh human semen = assay: Spermicidal effect on mixing with fresh human semen (effective ranges); type: cell-based
Method: With niclosamide dissolved in DMSO, a spermicidal effect at ≥10 mM was observed. With niclosamide in formulation, a spermicidal effect at a final concentration between 5 mM and 7.5 mM or higher, was observed. The effective range for niclosamide was determined to be from 5-150 mM. Ranges of: A spermicidal effect at ≥50% (v/v/) was observed when mixing polyethylene glycol-400 (PEG-400) with fresh human semen. The effective range for PEG-400 was determined to be from 50-65%.

[6] = test system: New Zealand white rabbits; assay: Vaginal irritation study, 7-day intravaginal instillation; type: in vivo
Method: Described herein is a study to assess and evaluate vaginal irritation effect of Niclosamide. A total of 9 female New Zealand white rabbits were used for the study described herein. The animals were divided into three groups of three animals in each group: Group 1 (G1) animals treated instilled/treated vehicle control; Group 2 (G2) animals instilled/treated with 2.5 mM dose of niclosamide; and Group 3 (G3) animals instilled/treated with 100 mM dose of niclosamide, as shown in Table 21.
Formulations preparation used for the study were as follows. Vehicle Preparation: 0.85% sodium chloride, 0.1% sorbic acid, 10% lactic acid and 75% water was taken in mortar and pestle and triturated, pH was adjusted to approximately 4.5 using 10 N sodium hydroxide. […] Remaining volume was adjusted with water. Total quantity was triturated again and formulation pH was confirmed with pH paper. […] Total quantity was triturated again and formulation pH was confirmed with pH paper.
Instillation of the treatment was done using prefilled FG-08 tube attached to 1 mL disposable syringe at a dose volume of 1.0 mL per animal continuously for 7 days (from day 1 to 7). Irritation potential was scored in all animals using draize scale daily before Niclosamide instillation and approximately 30 minutes after Niclosamide instillation daily from day 1 to 7 and 24 hours after last test item instillation (day 8). […]

[7] = Neutral Hydrolysis (3 mL H2O at 100° C. for 8 hours)

O=C(Nc1ccc([N+](=O)[O-])cc1Cl)c1cc(Cl)ccc1O [niclosamide]
% Degradation ([1]; Acid Hydrolysis (3 mL HCl at 100° C. for 8 hours)): No degradation | potency after degradation ([1]; Alkaline Hydrolysis (0.1N NaOH at 100° C. for 2 hours)): decreased to 97% | % Degradation ([1]; Alkaline Hydrolysis (0.1N NaOH at 100° C. for 2 hours), listed as drug substance): prone to alkaline hydrolysis | % Degradation, Impurity 1 [1, 7]: Impurity 1-0.02% | % Degradation, Impurity 2 [1, 7]: Impurity 2-0.03% | % Degradation, Impurity 3 ([1]; No stress Conditions): Impurity 3-0.04% | % Degradation ([1]; Oxidative Hydrolysis (3 mL H2O2 at 100° C. for 8 hours)): No degradation | % Degradation ([1]; Temperature Effect (100° C. for 8 hours)): No degradation | % Degradation ([1]; UV Exposure for 7 days): No degradation | water solubility [2]: about 13.32 μg/mL | Minimum dose to see effect (inhibits sperm motility), concentration (human sperm; concentration in formulation): 4 mM | effective niclosamide concentration that causes 100% decrease in number of motile sperm cells (human sperm; fresh semen, 2 minutes, vs control sample): ≥ 10 mM | Solubility ([3]; polyethylene glycol (PEG 400)): 47.4 mg/g | Solubility ([3]; polyethylene glycol (PEG 1000)): 46.6 mg/g | Solubility ([3]; polyethylene glycol (PEG 2000)): 45.6 mg/g | Solubility ([4]; pH 1.2 (0.1N HCl)): insoluble and Nil | Solubility ([4]; pH 2.0 (0.01N HCl)): insoluble and Nil | Solubility ([4]; pH 3.0 acid phthalate buffer): insoluble and Nil | Solubility ([4]; pH 4.0 acid phthalate buffer): insoluble and Nil | Solubility ([4]; pH 4.5 acetate buffer): insoluble and Nil | Solubility ([4]; pH 5.1 acetate buffer): insoluble and Nil | amount of API solubilised completely ([5]; 10 g of PEG-400, stirring and heating at 50° C. for 40 min): 700 mg was | amount of API solubilised completely ([5]; 10 g of PEG-1000, stirring and heating at 50° C. for 40 min): 500 mg was | amount of API solubilised completely ([5]; 10 g of PEG-2000, stirring and heating at 50° C. for 40 min): 500 mg was | maximum solubility ([5]; in PEG-1000, heating and stirring): 5 % w/w | maximum solubility ([5]; in PEG-2000, heating and stirring): 5 % w/w | concentration with spermicidal effect (fresh human semen; niclosamide dissolved in DMSO): ≥ 10 mM | effective range for niclosamide (fresh human semen; spermicidal effect): 5 to 150 mM | Clinical Signs and Mortality ([6]; 2.5 and 100 mM, 1.0 mL per animal intravaginally for 7 days, female rabbits): No treatment related mortality and adverse clinical signs | Gross Pathology of vagina ([6]; rabbit, in vivo): reddened at central lower half to caudal area mildly in all animals belonging to all groups
